Source: ChEMBL document CHEMBL4229332, “Novel multi-target azinesulfonamides of cyclic amine derivatives as potential antipsychotics with pro-social and pro-cognitive effects” (Eur J Med Chem, 2018)

Experiments:
Experiment in all cases: biochemical
[1] = molecular target: 5-hydroxytryptamine receptor 7 (Homo sapiens, UniProt P34969)
Description: Displacement of [3H]-5-CT from human 5-HT7R expressed in HEK293 cell membranes after 1 hr at 37 degC by microbeta counting method

[2] = molecular target: 5-hydroxytryptamine receptor 6 (Homo sapiens, UniProt P50406)
Description: Displacement of [3H]-LSD from human 5-HT6R expressed in HEK293 cell membranes after 1 hr at 37 degC by microbeta counting method

[3] = molecular target: 5-hydroxytryptamine receptor 2A (Homo sapiens, UniProt P28223); assay type: cell-based, CHO-K1
5-hydroxytryptamine receptor 2A, sequence (P28223 whole entry): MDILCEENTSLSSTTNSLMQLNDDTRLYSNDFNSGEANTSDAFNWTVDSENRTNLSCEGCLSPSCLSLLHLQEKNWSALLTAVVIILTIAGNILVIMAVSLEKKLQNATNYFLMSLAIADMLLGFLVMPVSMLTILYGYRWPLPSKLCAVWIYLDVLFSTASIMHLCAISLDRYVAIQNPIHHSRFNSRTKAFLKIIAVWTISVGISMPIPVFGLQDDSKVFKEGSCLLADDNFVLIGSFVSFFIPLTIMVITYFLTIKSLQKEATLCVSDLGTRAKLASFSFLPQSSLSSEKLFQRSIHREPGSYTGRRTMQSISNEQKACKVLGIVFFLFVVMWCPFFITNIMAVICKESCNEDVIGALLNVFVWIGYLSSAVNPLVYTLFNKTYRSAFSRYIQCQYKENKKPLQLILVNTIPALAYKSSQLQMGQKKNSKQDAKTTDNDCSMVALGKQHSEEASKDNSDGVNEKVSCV

[4] = molecular target: T1, 5-hydroxytryptamine receptor 1A (Homo sapiens, UniProt P08908)
T1 sequence (P08908 whole entry): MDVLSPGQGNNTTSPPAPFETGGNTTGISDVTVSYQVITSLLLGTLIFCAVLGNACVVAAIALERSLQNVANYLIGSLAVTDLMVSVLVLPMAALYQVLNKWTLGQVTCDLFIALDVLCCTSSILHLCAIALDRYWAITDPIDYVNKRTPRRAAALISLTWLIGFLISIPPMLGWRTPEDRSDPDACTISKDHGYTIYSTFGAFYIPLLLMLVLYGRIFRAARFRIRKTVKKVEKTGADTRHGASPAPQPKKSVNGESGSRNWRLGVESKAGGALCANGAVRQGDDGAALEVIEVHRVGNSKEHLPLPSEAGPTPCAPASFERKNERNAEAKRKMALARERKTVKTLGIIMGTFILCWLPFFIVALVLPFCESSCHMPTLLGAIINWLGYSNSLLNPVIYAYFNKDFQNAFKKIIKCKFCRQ
Description: Displacement of [3H]-8-OH-DPAT from human 5-HT1AR expressed in HEK293 cell membranes after 1 hr by microbeta counting method

5-hydroxytryptamine receptor 7, sequence (P34969 whole entry): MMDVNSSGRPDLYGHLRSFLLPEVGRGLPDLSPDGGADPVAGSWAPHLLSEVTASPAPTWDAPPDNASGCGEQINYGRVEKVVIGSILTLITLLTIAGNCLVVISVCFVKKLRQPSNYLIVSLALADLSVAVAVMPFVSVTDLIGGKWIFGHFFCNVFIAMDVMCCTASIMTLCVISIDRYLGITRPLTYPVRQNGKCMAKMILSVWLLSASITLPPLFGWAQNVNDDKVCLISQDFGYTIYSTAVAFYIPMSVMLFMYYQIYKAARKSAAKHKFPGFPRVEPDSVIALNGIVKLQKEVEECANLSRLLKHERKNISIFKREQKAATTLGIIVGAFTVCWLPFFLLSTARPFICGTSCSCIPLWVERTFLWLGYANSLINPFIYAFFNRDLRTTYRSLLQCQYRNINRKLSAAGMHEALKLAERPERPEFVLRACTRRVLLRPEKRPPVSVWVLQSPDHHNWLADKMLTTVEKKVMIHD
5-hydroxytryptamine receptor 6, sequence (P50406 whole entry): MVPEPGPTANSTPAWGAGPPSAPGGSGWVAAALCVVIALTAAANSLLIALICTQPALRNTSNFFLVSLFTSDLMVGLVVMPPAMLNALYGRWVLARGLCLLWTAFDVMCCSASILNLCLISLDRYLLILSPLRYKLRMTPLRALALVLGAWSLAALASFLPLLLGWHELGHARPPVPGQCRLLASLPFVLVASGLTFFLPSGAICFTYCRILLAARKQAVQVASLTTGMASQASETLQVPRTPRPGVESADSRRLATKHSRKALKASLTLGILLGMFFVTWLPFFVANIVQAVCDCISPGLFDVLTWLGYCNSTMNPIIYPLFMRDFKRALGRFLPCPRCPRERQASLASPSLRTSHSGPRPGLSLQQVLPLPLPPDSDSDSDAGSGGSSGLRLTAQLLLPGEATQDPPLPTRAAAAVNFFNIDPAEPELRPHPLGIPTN

Structure (SMILES) | Ki [1] [µM] | Ki [2] [µM] | Ki [3] [µM] | Ki [4] [µM]
O=c1[nH]c2c(N3CCN(CC[C@@H]4CCCN4S(=O)(=O)c4cncc5ccccc45)CC3)cccc2o1 | 0.672 | 2.99 | 2.04 | 0.027
O=S(=O)(c1ccnc2ccccc12)N1CCCCC[C@H]1CCN1CCN(c2nsc3ccccc23)CC1 | 0.019 | 0.623 | 0.026 | 0.05
O=S(=O)(c1cccc2ncccc12)N1CCC[C@H]1CCN1CCC(c2noc3cc(F)ccc23)CC1 | 0.012 | 0.169 | 0.012 | 0.147
O=S(=O)(c1cccc2ncccc12)N1CCCCC[C@H]1CCN1CCN(c2nsc3ccccc23)CC1 | 0.017 | 0.457 | 0.03 | 0.048
O=S(=O)(c1cccc2cnccc12)N1CCC[C@@H]1CCN1CCN(c2cccc3sccc23)CC1 | 0.003 | 0.009 | 0.019 | 0.013
O=S(=O)(c1cncc2ccccc12)N1CCCC[C@@H]1CCN1CCN(c2cccc3sccc23)CC1 | 0.032 | 0.221 | 0.064 | 0.012
O=S(=O)(c1cccc2ncccc12)N1CC[C@@H]1CCN1CCN(c2nsc3ccccc23)CC1 | 0.057 | 0.344 | 0.03 | 0.054
O=S(=O)(c1cccc2ncccc12)N1CC[C@@H]1CCN1CCN(c2cccc3sccc23)CC1 | 0.045 | 0.13 | 0.007 | 0.009
O=S(=O)(c1cncc2ccccc12)N1CCC[C@H]1CCN1CCN(c2cccc3c2OCCO3)CC1 | 0.142 | 1.48 | 0.091 | 0.006
O=S(=O)(c1cccc2ncccc12)N1CCCCC[C@H]1CCN1CCN(c2cccc3sccc23)CC1 | 0.019 | 0.176 | 0.051 | 0.012
O=S(=O)(c1cccc2ncccc12)N1CCC[C@H]1CCN1CC=C(c2c[nH]c3ccc(Cl)cc23)CC1 | 0.065 | 0.077 | 1.4 | 0.146
O=c1[nH]c2c(N3CCN(CC[C@@H]4CCCN4S(=O)(=O)c4cccc5ncccc45)CC3)cccc2o1 | 1.12 | 3.91 | 2.45 | 0.023
O=S(=O)(c1cccc2ncccc12)N1CCC[C@H]1CCN1CCN(c2nsc3ccccc23)CC1 |  | 0.311 | 0.016 | 0.025
O=S(=O)(c1cncc2ccccc12)N1CC[C@@H]1CCN1CCN(c2cccc3sccc23)CC1 | 0.031 | 0.104 | 0.016 | 0.016
O=S(=O)(c1cccc2ncccc12)N1CCC[C@H]1CCN1CCN(c2noc3ccccc23)CC1 | 0.007 | 0.291 | 0.049 | 0.179
O=S(=O)(c1cccc2cnccc12)N1CCC[C@H]1CCN1CCN(c2cccc3sccc23)CC1 | 0.023 | 0.072 | 0.009 | 0.01
O=S(=O)(c1cccc2ncccc12)N1CCC[C@H]1CCN1CCN(c2cccc3sccc23)CC1 | 0.019 | 0.082 | 0.036 | 0.013
O=S(=O)(c1cccc2ncccc12)N1CCC[C@@H]1CCN1CCN(c2nsc3ccccc23)CC1 |  | 0.038 | 0.021 | 0.024
O=S(=O)(c1cncc2ccccc12)N1CC[C@@H]1CCN1CCN(c2nsc3ccccc23)CC1 | 0.051 | 0.348 | 0.024 | 0.056
O=S(=O)(c1cncc2ccccc12)N1CCC[C@H]1CCN1CC=C(c2c[nH]c3ccc(Cl)cc23)CC1 | 0.097 | 0.06 | 0.238 | 0.066
O=S(=O)(c1cccc2ncccc12)N1CCC[C@H]1CCN1CCN(c2cccc3c2OCCO3)CC1 | 0.349 | 2.53 | 0.11 | 0.006

More lines, now with the values ahead:

Ki [1] [µM] | Ki [2] [µM] | Ki [3] [µM] | Ki [4] [µM] | Structure (SMILES)
0.075 | 2.06 | 0.082 | 0.008 | O=S(=O)(c1cncc2ccccc12)N1CCC[C@H]1CCN1CCN(c2cccc3[nH]ccc23)CC1
0.069 | 1.26 | 0.035 | 0.024 | O=S(=O)(c1ccnc2ccccc12)N1CCCC[C@@H]1CCN1CCN(c2nsc3ccccc23)CC1
0.022 | 0.337 | 0.035 | 0.015 | O=S(=O)(c1cccc2ncccc12)N1CCCC[C@@H]1CCN1CCN(c2cccc3sccc23)CC1
1.34 | 1.81 | 1.97 | 0.036 | O=c1[nH]c2c(N3CCN(CC[C@H]4CCCN4S(=O)(=O)c4cncc5ccccc45)CC3)cccc2o1
0.052 | 1.26 | 0.39 | 0.007 | O=S(=O)(c1cncc2ccccc12)N1CCC[C@@H]1CCN1CCN(c2cccc3c2OCCO3)CC1
0.014 | 0.641 | 0.451 | 0.005 | O=S(=O)(c1cccc2ncccc12)N1CCC[C@@H]1CCN1CCN(c2cccc3[nH]ccc23)CC1
0.006 | 0.497 | 0.033 | 0.096 | O=S(=O)(c1cncc2ccccc12)N1CCC[C@H]1CCN1CCN(c2noc3ccccc23)CC1
0.066 | 0.996 | 0.296 | 0.005 | O=S(=O)(c1cccc2ncccc12)N1CCC[C@@H]1CCN1CCN(c2cccc3c2OCCO3)CC1
0.001 | 0.013 | 0.056 | 0.015 | O=S(=O)(c1cccc2ncccc12)N1CCC[C@@H]1CCN1CCN(c2cccc3sccc23)CC1
0.0004 | 0.137 | 0.006 | 0.111 | O=S(=O)(c1cncc2ccccc12)N1CCC[C@H]1CCN1CCC(c2noc3cc(F)ccc23)CC1
0.165 | 2.31 | 0.244 | 0.014 | O=S(=O)(c1cccc2ncccc12)N1CCC[C@H]1CCN1CCN(c2cccc3[nH]ccc23)CC1
0.01 | 0.092 | 0.041 | 0.086 | O=S(=O)(c1cccc2cnccc12)N1CCC[C@H]1CCN1CCN(c2noc3ccccc23)CC1
0.004 | 0.766 | 0.076 | 0.006 | O=S(=O)(c1cncc2ccccc12)N1CCC[C@@H]1CCN1CCN(c2cccc3[nH]ccc23)CC1
0.008 | 0.023 | 1.9 | 0.147 | O=S(=O)(c1cncc2ccccc12)N1CCC[C@@H]1CCN1CC=C(c2c[nH]c3ccc(Cl)cc23)CC1
0.052 | 0.949 | 0.029 | 0.028 | O=S(=O)(c1cccc2ncccc12)N1CCCC[C@@H]1CCN1CCN(c2nsc3ccccc23)CC1
0.012 | 0.045 | 0.005 | 0.12 | O=S(=O)(c1cccc2ncccc12)N1CCC[C@@H]1CCN1CCC(c2noc3cc(F)ccc23)CC1
0.024 | 0.19 | 0.029 | 0.008 | O=S(=O)(c1cncc2ccccc12)N1CCCCC[C@H]1CCN1CCN(c2cccc3sccc23)CC1
0.012 | 0.018 | 1.15 | 0.091 | O=S(=O)(c1cccc2ncccc12)N1CCC[C@@H]1CCN1CC=C(c2c[nH]c3ccc(Cl)cc23)CC1
